According to US8168647B2, “Vinblastine derivatives, their preparation, use and pharmaceutical compositions comprising the said derivatives” (Shanghai Institute of Materia Medica Chinese Academy of …, priority 2007, dated 2012):
Counter-ions that a name gives are not always drawn. Like-named read-outs stand apart in the source and are kept apart here.

How the values were obtained:
[1] = tested on: human non-small cell lung cancer cell line A-549; experiment: In vitro cytotoxicity assay, Sulforhodamine B (SRB), A-549; assay type: cell-based; details: Homo sapiens
[2] = tested on: human cervical carcinoma cell line Hela; experiment: In vitro cytotoxicity assay, Sulforhodamine B (SRB), Hela; assay type: cell-based; details: Homo sapiens, HeLa
[3] = A549, 72 h, read-out: A549 (IC50, nM)
[4] = 72 h, read-out: Hela (IC50, nM)

Row | SMILES | IC50 [1, 3] [nM] | IC50 [2, 4] [nM] | IC50 ([1]; A549, SRB assay, 72 hours incubation, ditartrate of all compounds used, read-out: A549 (IC50)) [nM] | IC50 ([2]; SRB assay, 72 hours incubation, ditartrate of all compounds used, read-out: Hela (IC50)) [nM]
1 | CCC1=C[C@@H]2CN(CCc3c([nH]c4ccccc34)[C@@](C(=O)OC)(c3cc4c(cc3OC)N(C)[C@H]3C(O)(CNC(=O)C(C)C)[C@H](OC(C)=O)[C@]5(CC)C=CCN6CC[C@]43[C@@H]65)C2)C1 (stereo partly shown) [BM28] | 101 | 75.8 | – | –
2 | CCC1=C[C@@H]2CN(CCc3c([nH]c4ccccc34)[C@@](C(=O)OC)(c3cc4c(cc3OC)N(C)[C@H]3C(O)(CNC(=O)C5CCC5)[C@H](OC(C)=O)[C@]5(CC)C=CCN6CC[C@]43[C@@H]65)C2)C1 (stereo partly shown) [BM35] | 117 | 45.2 | – | –
3 | CCC1=C[C@@H]2CN(CCc3c([nH]c4ccccc34)[C@@](C(=O)OC)(c3cc4c(cc3OC)N(C)[C@H]3C(O)(CNC(=O)OC(C)C)[C@H](OC(C)=O)[C@]5(CC)C=CCN6CC[C@]43[C@@H]65)C2)C1 (stereo partly shown) [BM50] | 162 | 26.2 | – | –
4 | CCOCC1(O)[C@H](OC(C)=O)[C@]2(CC)C=CCN3CC[C@@]4(c5cc([C@@]6(C(=O)OC)C[C@@H]7C=C(CC)CN(CCc8c6[nH]c6ccccc86)C7)c(OC)cc5N(C)[C@@H]14)[C@@H]32 (stereo partly shown) [BM1] | 348 | 154 | – | –
5 | CCC1=C[C@@H]2CN(CCc3c([nH]c4ccccc34)[C@@](C(=O)OC)(c3cc4c(cc3OC)N(C)[C@H]3C(O)(CNC(=O)c5cccc(Cl)c5)[C@H](OC(C)=O)[C@]5(CC)C=CCN6CC[C@]43C65)C2)C1 (stereo partly shown) [BM40] | 103 | 42 | – | –
6 | CCC1=C[C@@H]2CN(CCc3c([nH]c4ccccc34)[C@@](C(=O)OC)(c3cc4c(cc3OC)N(C)[C@H]3C(O)(CNC(=O)Cc5ccccc5)[C@H](OC(C)=O)[C@]5(CC)C=CCN6CC[C@]43C65)C2)C1 (stereo partly shown) [BM46] | 174 | 22.9 | – | –
7 | CC[C@]1(O)C[C@@H]2CN(CCc3c([nH]c4ccccc34)[C@@](C(=O)OC)(c3cc4c(cc3OC)N(C)[C@H]3[C@@](O)(C(=O)OC)[C@H](OC(C)=O)[C@]5(CC)C=CCN6CC[C@]43[C@@H]65)C2)C1 [Vinblastine sulfate, vinblastine sulfate, reference compound] | 3.4 | 2.5 | – | –
8 | CCC1=C[C@@H]2CN(CCc3c([nH]c4ccccc34)[C@@](C(=O)OC)(c3cc4c(cc3OC)N(C)[C@H]3C(O)(CNC(=O)CC(C)C)[C@H](OC(C)=O)[C@]5(CC)C=CCN6CC[C@]43[C@@H]65)C2)C1 (stereo partly shown) [BM30] | > 1000 | > 1000 | – | –
9 | C=C(C)C(=O)NCC1(O)[C@H](OC(C)=O)[C@]2(CC)C=CCN3CC[C@@]4(c5cc([C@@]6(C(=O)OC)C[C@@H]7C=C(CC)CN(CCc8c6[nH]c6ccccc86)C7)c(OC)cc5N(C)[C@@H]14)[C@@H]32 (stereo partly shown) [BM32] | 17.9 | 12.5 | – | –
10 | CCC1=C[C@@H]2CN(CCc3c([nH]c4ccccc34)[C@@](C(=O)OC)(c3cc4c(cc3OC)N(C)[C@H]3C(O)(CNC(=O)c5ccc(C)cc5)[C@H](OC(C)=O)[C@]5(CC)C=CCN6CC[C@]43[C@@H]65)C2)C1 (stereo partly shown) [BM37] | 20.7 | 16 | – | –
11 | CCC1=C[C@@H]2CN(CCc3c([nH]c4ccccc34)[C@@](C(=O)OC)(c3cc4c(cc3OC)N(C)[C@H]3C(O)(CNC(=O)OC(C)(C)C)[C@H](OC(C)=O)[C@]5(CC)C=CCN6CC[C@]43[C@@H]65)C2)C1 (stereo partly shown) [BM51] | 505 | 172 | – | –
12 | CCC1=C[C@@H]2CN(CCc3c([nH]c4ccccc34)[C@@](C(=O)OC)(c3cc4c(cc3OC)N(C)[C@H]3C(O)(COC(=O)C5CC5)[C@H](OC(C)=O)[C@]5(CC)C=CCN6CC[C@]43[C@@H]65)C2)C1 (stereo partly shown) [BM14] | > 1000 | > 1000 | – | –
13 | CCCCOCC1(O)[C@H](OC(C)=O)[C@]2(CC)C=CCN3CC[C@@]4(c5cc([C@@]6(C(=O)OC)C[C@@H]7C=C(CC)CN(CCc8c6[nH]c6ccccc86)C7)c(OC)cc5N(C)[C@@H]14)[C@@H]32 (stereo partly shown) [BM4] | > 1000 | 295 | – | –
14 | CCC1=C[C@@H]2CN(CCc3c([nH]c4ccccc34)[C@@](C(=O)OC)(c3cc4c(cc3OC)N(C)[C@H]3C(O)(COC(=O)NCC(C)C)[C@H](OC(C)=O)[C@]5(CC)C=CCN6CC[C@]43C65)C2)C1 (stereo partly shown) [BM22] | > 1000 | > 1000 | – | –
15 | CCC1=C[C@@H]2CN(CCc3c([nH]c4ccccc34)[C@@](C(=O)OC)(c3cc4c(cc3OC)N(C)[C@H]3C(O)(CNC(=O)c5ccc(OC)cc5)[C@H](OC(C)=O)[C@]5(CC)C=CCN6CC[C@]43C65)C2)C1 (stereo partly shown) [BM45] | 578 | 135 | – | –
16 | CCC1=C[C@@H]2CN(CCc3c([nH]c4ccccc34)[C@@](C(=O)OC)(c3cc4c(cc3OC)N(C)[C@H]3C(O)(CNC(=O)OCc5ccccc5[N+](=O)[O-])[C@H](OC(C)=O)[C@]5(CC)C=CCN6CC[C@]43[C@@H]65)C2)C1 (stereo partly shown) [BM72] | 830 | 561 | – | –

Row | SMILES | IC50 [1, 3] [nM] | IC50 [2, 4] [nM] | IC50 ([1]; A549, SRB assay, 72 hours incubation, ditartrate of all compounds used, read-out: A549 (IC50)) [nM] | IC50 ([2]; SRB assay, 72 hours incubation, ditartrate of all compounds used, read-out: Hela (IC50)) [nM]
17 | CCCC(=O)NCC1(O)[C@H](OC(C)=O)[C@]2(CC)C=CCN3CC[C@@]4(c5cc([C@@]6(C(=O)OC)C[C@@H]7C=C(CC)CN(CCc8c6[nH]c6ccccc86)C7)c(OC)cc5N(C)[C@@H]14)[C@@H]32 (stereo partly shown) [BM29] | 348 | 126 | – | –
18 | CCC1=C[C@@H]2CN(CCc3c([nH]c4ccccc34)[C@@](C(=O)OC)(c3cc4c(cc3OC)N(C)[C@H]3C(O)(CNC(=O)OCc5ccc6c(c5)OCO6)[C@H](OC(C)=O)[C@]5(CC)C=CCN6CC[C@]43[C@@H]65)C2)C1 (stereo partly shown) [BM69] | 230 | 127 | – | –
19 | CCC1=C[C@@H]2CN(CCc3c([nH]c4ccccc34)[C@@](C(=O)OC)(c3cc4c(cc3OC)N(C)[C@H]3C(O)(CNC(=O)OCc5ccc(OC)cc5)[C@H](OC(C)=O)[C@]5(CC)C=CCN6CC[C@]43[C@@H]65)C2)C1 (stereo partly shown) [BM68] | 150 | 87.6 | – | –
20 | CCC1=C[C@@H]2CN(CCc3c([nH]c4ccccc34)[C@@](C(=O)OC)(c3cc4c(cc3OC)N(C)[C@H]3C(O)(COC(C)=O)[C@H](OC(C)=O)[C@]5(CC)C=CCN6CC[C@]43C65)C2)C1 (stereo partly shown) [BM6] | 124 | 47.6 | – | –
21 | CCC1=C[C@@H]2CN(CCc3c([nH]c4ccccc34)[C@@](C(=O)OC)(c3cc4c(cc3OC)N(C)[C@H]3C(O)(CNC(=O)OCc5ccccc5)[C@H](OC(C)=O)[C@]5(CC)C=CCN6CC[C@]43[C@@H]65)C2)C1 (stereo partly shown) [BM66] | 261 | 87.5 | – | –
22 | CCC1=C[C@@H]2CN(CCc3c([nH]c4ccccc34)[C@@](C(=O)OC)(c3cc4c(cc3OC)N(C)[C@H]3C(O)(CNC(=O)Oc5ccc(F)cc5)[C@H](OC(C)=O)[C@]5(CC)C=CCN6CC[C@]43[C@@H]65)C2)C1 (stereo partly shown) [BM62] | > 1000 | 377 | – | –
23 | CCC1=C[C@@H]2CN(CCc3c([nH]c4ccccc34)[C@@](C(=O)OC)(c3cc4c(cc3OC)N(C)[C@H]3C(O)(CNC(=O)OC5CCC5)[C@H](OC(C)=O)[C@]5(CC)C=CCN6CC[C@]43[C@@H]65)C2)C1 (stereo partly shown) [BM58] | 97.3 | 62.9 | – | –
24 | CC[C@]1(O)C[C@H]2CN(CCc3c([nH]c4ccccc34)[C@@](C(=O)OC)(c3cc4c(cc3OC)N(C=O)[C@H]3[C@@](O)(C(=O)OC)[C@H](OC(C)=O)[C@]5(CC)C=CCN6CC[C@]43[C@@H]65)C2)C1 [Vincristine sufate, reference compound] | – | – | 25.1 | 11.3
25 | CCC1=C[C@@H]2CN(CCc3c([nH]c4ccccc34)[C@@](C(=O)OC)(c3cc4c(cc3OC)N(C)[C@H]3C(O)(CNC(=O)OCc5ccccc5OC)[C@H](OC(C)=O)[C@]5(CC)C=CCN6CC[C@]43[C@@H]65)C2)C1 (stereo partly shown) [BM67] | 480 | 176 | – | –
26 | CCC1=C[C@@H]2CN(CCc3c([nH]c4ccccc34)[C@@](C(=O)OC)(c3cc4c(cc3OC)N(C)[C@H]3C(O)(CNC(=O)c5ccc(F)cc5)[C@H](OC(C)=O)[C@]5(CC)C=CCN6CC[C@]43C65)C2)C1 (stereo partly shown) [BM38] | 46.5 | 20.4 | – | –
27 | CCC1=C[C@@H]2CN(CCc3c([nH]c4ccccc34)[C@@](C(=O)OC)(c3cc4c(cc3OC)N(C)[C@H]3C(O)(CNC(=O)OC5CCCCC5)[C@H](OC(C)=O)[C@]5(CC)C=CCN6CC[C@]43[C@@H]65)C2)C1 (stereo partly shown) [BM60] | 226 | 75.9 | – | –
28 | CC[C@]12C=CCN3CC[C@@]4(c5cc([C@@]6(C(=O)OC)C[C@@H]7C[C@@H](C(C)(F)F)CN(CCc8c6[nH]c6ccccc86)C7)c(OC)cc5N(C)[C@H]4C(O)(CNC(C)=O)[C@@H]1OC(C)=O)[C@@H]32 (stereo partly shown) [BM77] | > 1000 | > 1000 | – | –
29 | CCC1=C[C@@H]2CN(CCc3c([nH]c4ccccc34)[C@@](C(=O)OC)(c3cc4c(cc3OC)N(C)[C@H]3C(O)(CNC(C)=O)[C@H](OC(C)=O)[C@]5(CC)C=CCN6CC[C@]43[C@@H]65)C2)C1 (stereo partly shown) [BM25] | > 1000 | 477 | – | –
30 | C=CCOCC1(O)[C@H](OC(C)=O)[C@]2(CC)C=CCN3CC[C@@]4(c5cc([C@@]6(C(=O)OC)C[C@@H]7C=C(CC)CN(CCc8c6[nH]c6ccccc86)C7)c(OC)cc5N(C)[C@@H]14)[C@@H]32 (stereo partly shown) [BM2] | 441 | 113 | – | –
31 | CCC1=C[C@@H]2CN(CCc3c([nH]c4ccccc34)[C@@](C(=O)OC)(c3cc4c(cc3OC)N(C)[C@H]3C(O)(COC(=O)CC(C)C)[C@H](OC(C)=O)[C@]5(CC)C=CCN6CC[C@]43[C@@H]65)C2)C1 (stereo partly shown) [BM13] | > 1000 | > 1000 | – | –
32 | CCC1=C[C@@H]2CN(CCc3c([nH]c4ccccc34)[C@@](C(=O)OC)(c3cc4c(cc3OC)N(C)[C@H]3C(O)(COC(=O)C(C)C)[C@H](OC(C)=O)[C@]5(CC)C=CCN6CC[C@]43[C@@H]65)C2)C1 (stereo partly shown) [BM11] | > 1000 | > 1000 | – | –
